Reference: patent US10413559B2, “Method for treating demyelinating disease” (OCHANOMIZU UNIVERSITY, priority 2013, dated 2019)

Key:
[1] = tested on: GFAP, Iba1, PDGFRa, P2rx7, Nlrp3 gene expression in corpus callosum; test: Genetic analysis using Q-PCR of corpus callosum tissues; format: in vivo, C57BL/6j mice; conditions: cuprizone mice; intraperitoneal 1.6 mg/kg/day for 5 weeks; FIG. 6-8
Text: 10-week-old male C57BL/6j mice (Tokyo Laboratory Animals Science Co., Ltd., Tokyo, Japan) were fed by the discretionary intake of a mash feed (CLEA Japan, Inc.) that contained 0.2% cuprizone (biscyclohexanone oxalyl hydrazone; Merck KGaA, Darmstadt, Germany) for 5 weeks until demyelination progressed most, so as to produce demyelination model mice involving demyelination caused by oligodendrocyte-specific cell death.
To obtain mouse corpus callosum tissues to be used for genetic analysis, mouse brain was removed, and the corpus callosum tissues were then collected from the brain. […]
mRNA was extracted from the frozen corpus callosum tissues using ISOGEN (Nippon Gene Co., Ltd., Tokyo, Japan), was then dissolved in RNase free molecular grade water (Takara Bio Inc., Shiga, Japan), and was then preserved at −80° C. […] Gene expression was detected using 7900 Sequence Detection System (Applied Biosystems). […] The gene expression level was calculated by a ΔΔCT method. Data were analyzed by a relative quantification method. A relative change in the gene expression was analyzed, while setting the gene expression level in a control mouse at 100%.

[2] = tested on: demyelination model mice (0.2% cuprizone); test: Test of motor function impairment using rotarod; format: in vivo, C57BL/6j mice; conditions: intraperitoneal 1.6 mg/kg/day for 5 weeks, 28 rpm, 300 seconds, FIG. 9, FIG. 10
Text: 10-week-old male C57BL/6j mice (Tokyo Laboratory Animals Science Co., Ltd., Tokyo, Japan) were fed by the discretionary intake of a mash feed (CLEA Japan, Inc.) that contained 0.2% cuprizone (biscyclohexanone oxalyl hydrazone; Merck KGaA, Darmstadt, Germany) for 5 weeks until demyelination progressed most, so as to produce demyelination model mice involving demyelination caused by oligodendrocyte-specific cell death. The cPA used in the experiment was the same cPA (16:0) as that used in Example 1, and the carba-cPA was 2 ccPA (16:1). The cPA and 2 ccPA were chemically purified (Biochimica et Biophysica Acta, Emi Nozaki 2011), and were then dissolved in a 0.9% saline. […] The locomotion time on the rod was evaluated by measuring the time required for the mice to fall from the rotating rod within a record time of 300 seconds. Moreover, even after the mice had fallen from the rod, they were forced to continue their activity immediately after the falling, so that a total number of the activities from falling from the rod to holding on to the rod for 300 seconds (a number of falls and flips) was measured and evaluated. The data of the test of motor function impairment were analyzed according to a non-parametric method using a Kruskal-Wallis test. All of other data were analyzed according to a one-way ANOVA method using a Newman-Keulis test. […]

SMILES: CCCCCCCCCCCCCCCC(=O)OCC1COP(=O)(O)O1 (centres unmarked) [cPA]
- nerve inflammation (gene expression by Q-PCR) [1]: nerve inflammation is suppressed
- motor function impairment (rotarod) [2]: motor function impairment is improved
